Legend:
[1] = system: lens opacities after whole head irradiation; format: in vivo; details: for appearance of lens opacities / delay of lens PSC opacities / delay of the average (50% in all animals) formation of PSC punctuate opacities: 15 Gy whole head irradiation; for delay of lens PSC opacities / delay of the average (50% in all animals) formation of PSC punctuate opacities: compared to untreated rats, JHX 0.025 wt % in chow, Pantethine 1 g/kg i.p.; for toxic effects: irradiated rats
Excerpt: Cataracts were induced by whole head gamma irradiation in 24 male Long Evans (150-200 g) rats. […] Because of the amount of drug required for this long-term study, the percentage of JHX-4 and JHX-8 utilized was ½ of the dose used in the diabetic study. […] Gamma radiation (6000 Curie Cobalt-60 Source, UNMC Experimental Radiation Facility) was delivered to the whole head of unanesthetized, restrained rats at a dose rate of dose 0.341 Gy/minute for a total dose of 15 Gy. Lens changes were monitored every 7 days by portable slit lamp and recorded on a scale from 0-6 with 0: Clear, 1: Posterior subcapsular haze, 2: Spokes, suture enhancement and powdery posterior subcapsular deposits, 3: Prominent posterior subcapsular punctate opacities with spokes and suture enhancement, 4: Posterior subcapsular opacity blocks appearance of retinal vessels, 5: Start cortical involvement, 6: Total lens opacity, visible with naked eye. Since whole head irradiation results in a temporary loss of salivary gland function, all rats received Nutra-Gel (Bio-Serv) with/without JHX-4 or -8 for the first 66 days. Subsequently, all rats received standard rat chow with/without JHX-4 or -8.

[2] = Chow consumption, body weight and salivary gland protection after whole head irradiation; format: in vivo, Long Evans rats; details: for body weight after irradiation: 15 Gy whole head irradiation; for protection of the salivary gland: after whole head irradiation
Excerpt: Cataracts were induced by whole head gamma irradiation in 24 male Long Evans (150-200 g) rats. […] Because of the amount of drug required for this long-term study, the percentage of JHX-4 and JHX-8 utilized was ½ of the dose used in the diabetic study. […] Lens changes were monitored every 7 days by portable slit lamp and recorded on a scale from 0-6 with 0: Clear, 1: Posterior subcapsular haze, 2: Spokes, suture enhancement and powdery posterior subcapsular deposits, 3: Prominent posterior subcapsular punctate opacities with spokes and suture enhancement, 4: Posterior subcapsular opacity blocks appearance of retinal vessels, 5: Start cortical involvement, 6: Total lens opacity, visible with naked eye. […] Subsequently, all rats received standard rat chow with/without JHX-4 or -8.

[3] = Chelation study by ESI-MS, Cu^1+ solution; format: binding; details: 10:1 metal:compound, 45 minutes of mixing
Procedure: (§1) The relative amount of ions bound by JHX-1-JHX-8 was determined by electrospray ionization mass spectrometry (ESI-MS) according to the method of Baron and Hering (Baron and Hering (1998) Spectrometry J. Environ. Qual., 27:844-850). In this method solutions containing Fe^2+, Fe^3+, Cu^1+, Cu^2+, Zn^2+, Ca^2+, Mg^2+ were mixed with compound in ratios of 10:1, 1:1, and 1:10. After 45 minutes of mixing, each solution was directly infused into the MS with constant ionization energy and the relative decreases of the parent peaks in these solutions were determined. […] FIG. 3 illustrates ion binding with increased Fe^+2 concentrations results in decreased compound parent peak heights by ESI-MS when compounds contain appropriate functional groups for metal ion chelation.

[4] = system: SRA-1 human lens epithelium cell line; assay: MTS cell viability assay; format: cell-based; details: 1.0 mM H2O2, 2 hours, 1 mM compound
Procedure: The SRA-1 human lens epithelium cell line (Ibaraki et al. (1998) Exp. Eye Res., 67:577-85) was used to evaluate the antioxidant activity of JHX-1-8. […] The cells were passaged when 80-90% confluent by treatment with trypsin-EDTA. The cells were plated at a density of 1×10^4 cells onto 96-well plates or 1×10^6 cells onto 100-mm dishes. ROS levels/effects in cells treated with JHX-1-8 were compared to similar cells treated with the water soluble Vitamin E derivative, Trolox (antioxidant control) or no drug (control). […] Cells were cultured in 96-well plates and exposed for 2 hours to media containing 1.0 mM H2O2 (FIG. 5A) or Fenton reagents (1.0 mM H2O2 and 1.0 mM Fe^2+, FIG. 5B) with/without 1 mM JHX-1-8 or Trolox. Viability was measured as the absorbance of MTS stain at 490 nm 1 hour after the addition of 20 μL of […] AQueous One Solution Cell Proliferation Assay to each well. The results were normalized to blank control (100%) since absorbance is directly proportional to the living cell population.

[5] = Chelation study by ESI-MS, Zn^2+ solution; format: binding; details: 10:1 metal:compound, 45 minutes of mixing
Procedure: as §1

SMILES | appearance of lens opacities [1] | delay of lens PSC opacities [1] [days] | delay of the average (50% in all animals) formation of PSC punctuate opacities [1] [days] | toxic effects [1] | body weight after irradiation [2] | protection of the salivary gland [2] | % Parent Peak Remaining at 10:1 Solution of Metal:Compound [3] [%] | protection against H2O2 induced loss of cell viability [4] | % Parent Peak Remaining at 10:1 Solution of Metal:Compound [5] [%]
CN(C)S(=O)(=O)N1C(=O)CN(c2ncc(O)cn2)CC1=O [JHX-4, 1-N,N′-dimethylsulfamoyl-4-(5-hydroxy-2-pyrimidyl)piperazine-2,6-dione] | delayed | 38 | 53 | No apparent toxic effects | reducing post-irradiation weight loss | provided systemic protection | 4.2 | protecting against H2O2 induced loss of cell viability | 12.7
COc1nc(N2CC(=O)N(S(=O)(=O)N(C)C)C(=O)C2)nc(OC)c1O [JHX-8, 1-N,N′-dimethylsulfamoyl-4-(4,6-dimethoxy-5-hydroxy-2-pyrimidyl)piperazine-2,6-dione] | delayed | 47 | 58 | No apparent toxic effects | reducing post-irradiation weight loss | provided systemic protection | 4.0 | protecting against H2O2 induced loss of cell viability | 14.6
